One experiment concerns the target T1, CDK3 (Homo sapiens, UniProt Q00526).
T1 construct: purchased Eurofins DiscoverX (KINOMEscan scanEDGE 97)
Kind of experiment: KINOMEscan competition binding. To be noted: OR0642 1 µM; read-out: %Control. How it is done:
(§1) Kinome profiling was provided by Eurofins DiscoverX Corporation. Determination of the % control activity for 97 kinases was obtained through an active site-directed competition binding assay that quantitatively measure interactions between compound and kinases. OR0642 was used at 1 μM.
(§2) Supplementary Table 3. KINOMEscan™ Profiling of OR0642. Competition binding assay to
(§3) quantitatively measure interactions between OR0642 (1 µM) and 97 human kinases and disease
(§4) relevant mutant variants.

In a further experiment the target is T2, CSNK1G2 (Homo sapiens, UniProt P78368).
T2 construct: purchased Eurofins DiscoverX (KINOMEscan scanEDGE 97)
The experiment in a line: KINOMEscan competition binding. To be noted: OR0642 1 µM; read-out: %Control. How it is done:
as §1, §2, §3, §4

Another experiment has as its target T3, IGF1R (Homo sapiens, UniProt P08069).
T3 construct: purchased Eurofins DiscoverX (KINOMEscan scanEDGE 97)
Kind of experiment: KINOMEscan competition binding. Particulars: OR0642 1 µM; read-out: %Control. How it is done:
as §1, §2, §3, §4

The target in the next experiment is T4, FAK (Homo sapiens, UniProt Q05397).
T4 construct: purchased Eurofins DiscoverX (KINOMEscan scanEDGE 97)
The experiment in a line: KINOMEscan competition binding. Particulars: OR0642 1 µM; read-out: %Control. How it is done:
as §1, §2, §3, §4

For a further experiment, the target named is T5, MKNK2 (Homo sapiens, UniProt Q9HBH9).
T5 construct: purchased Eurofins DiscoverX (KINOMEscan scanEDGE 97)
The experiment in a line: KINOMEscan competition binding. Particulars: OR0642 1 µM; read-out: %Control. How it is done: as §1, §2, §3, §4

A further experiment addresses T6, GSK3B (Homo sapiens, UniProt P49841).
T6 construct: purchased Eurofins DiscoverX (KINOMEscan scanEDGE 97)
The experiment in a line: KINOMEscan competition binding. To be noted: OR0642 1 µM; read-out: %Control. How it is done:
as §1, §2, §3, §4

In a further experiment the target is T7, IKK-beta (Homo sapiens, UniProt O14920).
T7 construct: purchased Eurofins DiscoverX (KINOMEscan scanEDGE 97)
The experiment in a line: KINOMEscan competition binding. Particulars: OR0642 1 µM; read-out: %Control. How it is done:
as §1, §2, §3, §4

The target of the next experiment is T8, CDK11 (Homo sapiens, UniProt Q9BWU1).
T8 construct: purchased Eurofins DiscoverX (KINOMEscan scanEDGE 97)
Kind of experiment: KINOMEscan competition binding. To be noted: OR0642 1 µM; read-out: %Control. How it is done: as §1, §2, §3, §4

The next experiment addresses T9, EGFR (Homo sapiens, UniProt P00533).
T9 construct: purchased Eurofins DiscoverX (KINOMEscan scanEDGE 97)
Kind of experiment: KINOMEscan competition binding. To be noted: OR0642 1 µM; read-out: %Control. How it is done: as §1, §2, §3, §4

A further experiment deals with T10, JNK1 (Homo sapiens, UniProt P45983).
T10 construct: purchased Eurofins DiscoverX (KINOMEscan scanEDGE 97)
The experiment in a line: KINOMEscan competition binding. To be noted: OR0642 1 µM; read-out: %Control. How it is done:
as §1, §2, §3, §4

For another experiment, the target named is T11, FGFR2 (Homo sapiens, UniProt P21802).
T11 construct: purchased Eurofins DiscoverX (KINOMEscan scanEDGE 97)
Kind of experiment: KINOMEscan competition binding. To be noted: OR0642 1 µM; read-out: %Control. As to the method:
as §1, §2, §3, §4

In another experiment the target is T12, ACVR1B (Homo sapiens, UniProt P36896).
T12 construct: purchased Eurofins DiscoverX (KINOMEscan scanEDGE 97)
Kind of experiment: KINOMEscan competition binding. To be noted: OR0642 1 µM; read-out: %Control. How it is done:
as §1, §2, §3, §4

Another experiment has as its target T13, PDPK1 (Homo sapiens, UniProt O15530).
T13 construct: purchased Eurofins DiscoverX (KINOMEscan scanEDGE 97)
The experiment in a line: KINOMEscan competition binding. To be noted: OR0642 1 µM; read-out: %Control. How it is done:
as §1, §2, §3, §4

For another experiment, the target named is T14, EPHA2 (Homo sapiens, UniProt P29317).
T14 construct: purchased Eurofins DiscoverX (KINOMEscan scanEDGE 97)
The experiment in a line: KINOMEscan competition binding. To be noted: OR0642 1 µM; read-out: %Control. As to the method:
as §1, §2, §3, §4

A further experiment addresses T15, CHEK1 (Homo sapiens, UniProt O14757).
T15 construct: purchased Eurofins DiscoverX (KINOMEscan scanEDGE 97)
The experiment in a line: KINOMEscan competition binding. Particulars: OR0642 1 µM; read-out: %Control. How it is done:
as §1, §2, §3, §4

A further experiment addresses T16, CSF1R (Homo sapiens, UniProt P07333).
T16 construct: purchased Eurofins DiscoverX (KINOMEscan scanEDGE 97)
The experiment in a line: KINOMEscan competition binding. Particulars: OR0642 1 µM; read-out: %Control. As to the method:
as §1, §2, §3, §4

Another experiment has as its target T17, BMPR2 (Homo sapiens, UniProt Q13873).
T17 construct: purchased Eurofins DiscoverX (KINOMEscan scanEDGE 97)
The experiment in a line: KINOMEscan competition binding. Particulars: OR0642 1 µM; read-out: %Control. As to the method: as §1, §2, §3, §4

A further experiment has as its target T18, BTK (Homo sapiens, UniProt Q06187).
T18 construct: purchased Eurofins DiscoverX (KINOMEscan scanEDGE 97)
The experiment in a line: KINOMEscan competition binding. To be noted: OR0642 1 µM; read-out: %Control. How it is done: as §1, §2, §3, §4

The next experiment addresses T19, PIM1 (Homo sapiens, UniProt P11309).
T19 construct: purchased Eurofins DiscoverX (KINOMEscan scanEDGE 97)
The experiment in a line: KINOMEscan competition binding. To be noted: OR0642 1 µM; read-out: %Control. How it is done: as §1, §2, §3, §4

The target of the next experiment is T20, PAK2 (Homo sapiens, UniProt Q13177).
T20 construct: purchased Eurofins DiscoverX (KINOMEscan scanEDGE 97)
Kind of experiment: KINOMEscan competition binding. To be noted: OR0642 1 µM; read-out: %Control. How it is done:
as §1, §2, §3, §4

A further experiment deals with T21, BRAF (Homo sapiens, UniProt P15056).
T21 construct: purchased Eurofins DiscoverX (KINOMEscan scanEDGE 97)
The experiment in a line: KINOMEscan competition binding. To be noted: OR0642 1 µM; read-out: %Control. How it is done: as §1, §2, §3, §4

A further experiment addresses T22, MET (Homo sapiens, UniProt P08581).
T22 construct: purchased Eurofins DiscoverX (KINOMEscan scanEDGE 97)
The experiment in a line: KINOMEscan competition binding. Particulars: OR0642 1 µM; read-out: %Control. How it is done:
as §1, §2, §3, §4

In another experiment the target is T23, CDK7 (Homo sapiens, UniProt P50613).
T23 construct: purchased Eurofins DiscoverX (KINOMEscan scanEDGE 97)
The experiment in a line: KINOMEscan competition binding. To be noted: OR0642 1 µM; read-out: %Control. As to the method: as §1, §2, §3, §4

The next experiment addresses T24, FGFR3 (Homo sapiens, UniProt P22607).
T24 construct: purchased Eurofins DiscoverX (KINOMEscan scanEDGE 97)
The experiment in a line: KINOMEscan competition binding. To be noted: OR0642 1 µM; read-out: %Control. How it is done: as §1, §2, §3, §4

In a further experiment the test system is 97 kinases. The experiment in a line: Kinome profiling (KINOMEscan, whole panel). The format is binding, human. To be noted: OR0642 1 µM. How it is done:
as §1
Supplementary Table 3. KINOMEscan™ Profiling of OR0642. Competition binding assay to quantitatively measure interactions between OR0642 (1 µM) and 97 human kinases and disease relevant mutant variants.
Target Gene Symbol %Control Target Gene Symbol %Control […]

A further experiment concerns PDX UPNTAGG. The experiment in a line: Ex vivo testing on PDX samples (viability, flow cytometry, 72 h). The format is cell-based, human. An excerpt:
(§5) Bone marrow-infiltrating blasts from terminally mice bearing PDX as stated above were collected as established before. Extensive analysis (immunophenotype and molecular analysis) of matched primary and PDX samples used in the study are shown in Supplementary Table 7, showing that they remain stable. Briefly, after euthanasia, bone marrows from tibiae, hips, femurs, and vertebrae were isolated and blasts collected for subsequent ex vivo experiments. All samples used contained ≥90% blasts as determined by flow cytometry. For the cytotoxic evaluation of OR0642, blasts were then stained with CellTraceTM Violet (CTV, Thermo Fisher Scientific, C34557) prior seeding at 10,000 cells into 96-well plates under normal conditions or pre-plated with OP9-DL1 cells. Cells were cultured in RPMI 1640 supplemented with 20% fetal bovine serum, 50 µg/ml streptomycin, 50 UI penicillin, 4 mM L-glutamine, and a cocktail of human cytokines as previously established (50 ng/ml human stem cell factor, 20 ng/ml hFLT3-L, 10 ng/ml hIL-7 and 20 nM insulin (Miltenyi Biotec))[28]. […] Rescue by dC supplementation (1 µM) was also evaluated. OR0642 was then tested alone, or combined with dT or dT + dC at two concentrations (0.25 and 0.5 µM). Cell viability was evaluated by flow cytometry 72 h post-treatment. Proliferation indexes were calculated using the detection of CTV in the control replicates (DMSO) and the proliferation modeling tool of FlowJo™ Software 10.7.1 (BD Life Sciences). A control peak of undivided CTV-stained cells was systematically used to set the undivided fraction.
A general note: In flow cytometry, cells or beads pass a laser one at a time.

For a further experiment, the system named is PDX UPNT380. The experiment is described as above. The format is cell-based, human.
Description: as §5

The values below come from PMC10227015, “From a drug repositioning to a structure-based drug design approach to tackle acute lymphoblastic leukemia” (Nature Communications, 2023).

Turning to `CCCN(c1nc(-c2nc(N)cc(N)n2)cs1)c1cc(-c2ccc(S(=O)(=O)N3CCN(C)CC3)cc2C(F)(F)F)ccc1C` [OR0642], the remaining binding at 1 µM at CDK3 was determined as 97%; at CSNK1G2, 91%; on IGF1R, 93%; at FAK, 100%; on MKNK2, 79%; at GSK3B, 100%. For the same molecule, the remaining binding at 1 µM on IKK-beta was 90%; on CDK11, 100%; on EGFR, 82%; at JNK1, 93%; on FGFR2 it was 89%; at ACVR1B, 86%. Also, the remaining binding at 1 µM on PDPK1 turned out to be 98%; at EPHA2 it was 90%; at CHEK1 it was 91%; at CSF1R, 100%; on BMPR2, 94%; at BTK, 92%. Besides, the remaining binding at 1 µM turned out to be 100% at PIM1; 98% at PAK2; 99% at BRAF; 100% at MET; 94% on CDK7; 79% at FGFR3. Further, the “kinome-wide profiling” value with 97 kinases is listed as “none of the 97 kinases tested was inhibited”.

`Cc1cn([C@H]2C[C@H](O)[C@@H](CO)O2)c(=O)[nH]c1=O` [dT, thymidine]: the viability at 12 µM in the experiment on PDX UPNTAGG (Homo sapiens, UPNTAGG, dT 12 µM, read-out: Cell viability, Mean (% viab)) was 100%; in the experiment with PDX UPNT380 (Homo sapiens, UPNT380, dT 12 µM, read-out: Cell viability, Mean (% viab)), 100%. Moreover, the viability at 37 µM was 87.6% with PDX UPNTAGG (Homo sapiens, UPNTAGG, dT 37 µM, read-out: Cell viability, Mean (% viab)) and 85.4% with PDX UPNT380 (Homo sapiens, UPNT380, dT 37 µM, read-out: Cell viability, Mean (% viab)). In addition, the viability at 111 µM stood at 82.2% with PDX UPNTAGG (Homo sapiens, UPNTAGG, dT 111 µM, read-out: Cell viability, Mean (% viab)) and 79.4% in the experiment on PDX UPNT380 (Homo sapiens, UPNT380, dT 111 µM, read-out: Cell viability, Mean (% viab)). Besides, the viability at 333 µM worked out at 73.3% in the experiment on PDX UPNTAGG (Homo sapiens, UPNTAGG, dT 333 µM, read-out: Cell viability, Mean (% viab)) and 76.9% in the experiment on PDX UPNT380 (Homo sapiens, UPNT380, dT 333 µM, read-out: Cell viability, Mean (% viab)). Also, the viability at 1000 µM with PDX UPNTAGG (Homo sapiens, UPNTAGG, dT 1000 µM, read-out: Cell viability, Mean (% viab)) came out at 65.7%; in the experiment with PDX UPNT380 (Homo sapiens, UPNT380, dT 1000 µM, read-out: Cell viability, Mean (% viab)), 70.3%. Also, the viability at 3000 µM is 58.6% in the experiment with PDX UPNTAGG (Homo sapiens, UPNTAGG, dT 3000 µM, read-out: Cell viability, Mean (% viab)) and 67.7% with PDX UPNT380 (Homo sapiens, UPNT380, dT 3000 µM, read-out: Cell viability, Mean (% viab)). In addition, the “Response at dT100 µM” value in the experiment on PDX UPNTAGG (PDX AGG, dT 100 µM) worked out at 38; with PDX UPNT380 (PDX 380, dT 100 µM), 27.

What is called viability is a per cent measure of how many cells are alive, often set against a control.
